These are literature values, as cited in patent US20100317522A1, “Adjuvants for Agrochemical Applications” (COGNIS IP […], priority 2007, published 2010).

The LD50 is the dose expected to kill half of the subjects tested.

The conditions of the series: rat, oral (WHO).

Take `O=C(O)CNCP(=O)(O)O` [Glyphosate, N-(phosphonomethyl)glycine]: the LD50 is on record as 4320 mg/kg.
